Test results taken from patent publication US20090143279A1 (priority 2007, published 2009).
Where two headings read alike, the source gives them in different places.

How the values were obtained:
[1] = tested on: mitochondrial membrane potential; format: cell-based, mouse; settings: Conc 20 μM; for ΔΨm (composite Z-score): normalized score vs mock-treated (DMSO) wells
[2] = tested on: cellular dehydrogenase activity; settings: Conc 20 μM; for MTT (composite Z-score): normalized score vs mock-treated (DMSO) wells
[3] = tested on: OXPHOS gene expression; format: cell-based, mouse; settings: for GE-HTS (composite Z-score) / GE-HTS: Conc 20 μM; for GE-HTS (composite Z-score): normalized score vs mock-treated (DMSO) wells
[4] = tested on: mtOXPHOS transcripts; format: cell-based, mouse; settings: Conc 20 μM; for mitoOX (composite Z-score): normalized score vs mock-treated (DMSO) wells
[5] = tested on: nuOXPHOS transcripts; format: cell-based, mouse; settings: Conc 20 μM; for nucOX (composite Z-score): normalized score vs mock-treated (DMSO) wells
[6] = tested on: reactive oxygen species; format: cell-based, mouse; settings: for ROS (composite Z-score) / ROS: Conc 20 μM; for ROS (composite Z-score): normalized score vs mock-treated (DMSO) wells
[7] = tested on: cytochrome c; format: cell-based, mouse; settings: Conc 20 μM; for cyt c (composite Z-score): normalized score vs mock-treated (DMSO) wells
[8] = tested on: C2C12 myotubes; settings: Conc 20 μM; for Viability (composite Z-score): normalized score vs mock-treated (DMSO) wells
[9] = normalized composite Z-score vs mock-treated (DMSO) wells
[10] = Table 6, C2C12 myotubes, 48 h, composite Z-score

Chain of cytochrome c (P62897 whole entry): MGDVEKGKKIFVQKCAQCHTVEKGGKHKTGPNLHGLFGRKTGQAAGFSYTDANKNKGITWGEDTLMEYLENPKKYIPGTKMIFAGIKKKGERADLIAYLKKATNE

CC1=CC(=O)C2=C(C)C[C@H](O)[C@@H]3[C@H](OC(=O)[C@H]3C)[C@H]12 [austricine]
ΔΨm (composite Z-score) [1]: −0.711
MTT (composite Z-score) [2]: −1.268
GE-HTS (composite Z-score) [3]: 0.165
mitoOX (composite Z-score) [4]: 0.349
nucOX (composite Z-score) [5]: 0.081
ROS (composite Z-score) [6]: 0.665
cyt c (composite Z-score) [7]: 0.842
Viability (composite Z-score) [8]: −0.394

COc1cc(OC)c2c(OC)c(-c3ccc4c(c3)OCO4)c(=O)oc2c1 [derrusnin]
ΔΨm [1, 9]: 0.025
MTT [2, 9]: −1.630
GE-HTS [3, 9]: 0.039
mitoOX [4, 9]: 0.417
nucOX [5, 9]: −0.129
ROS [6, 9]: 4.060
cyt c [7, 9]: 0.511
Viability [8, 9]: 1.067

3,7-epoxycaryophyllan-6-one
ΔΨm [1, 9]: −1.003
MTT [2, 9]: −0.698
GE-HTS [3, 9]: −0.812
mitoOX [4, 9]: −0.595
nucOX [5, 9]: −0.824
ROS [6, 9]: 0.603
cyt c [7, 9]: 0.131
Viability [8, 9]: 0.433

O=C(O)/C=C/C=C/c1ccccc1 [juarezic acid]
ΔΨm ([1]; composite Z-score vs DMSO): −0.821
MTT ([2]; composite Z-score vs DMSO): −0.449
GE-HTS ([3]; composite Z-score vs DMSO): −0.147
mitoOX ([4]; composite Z-score vs DMSO): −0.650
nucOX ([5]; composite Z-score vs DMSO): 0.108
ROS ([6]; composite Z-score vs DMSO): 0.345
cyt c ([7]; composite Z-score vs DMSO): −0.113
Viability ([8]; composite Z-score vs DMSO): −0.106

CC1(C)C(=O)CC[C@@]2(C)C1C[C@@H](O)[C@@]1(C)C3=CC(=O)O[C@@H](c4ccoc4)[C@]3(C)CCC21 (stereo partly drawn) [dihydro-7-desacetyldeoxygedunin]
ΔΨm [1, 9]: −0.170
MTT [2, 9]: −1.403
GE-HTS [3, 9]: −0.961
mitoOX [4, 9]: −1.218
nucOX [5, 9]: −0.719
ROS [6, 9]: 0.608
cyt c [7, 9]: 0.599
Viability [8, 9]: −0.527

CC(=O)O[C@H]1CC[C@@]2(C)C(=CC[C@H]3[C@@H]4CC[C@H]([C@H](C)CCCC(C)C)[C@@]4(C)CC[C@@H]32)C1 [cholesteryl acetate]
ΔΨm ([1]; composite Z-score vs DMSO): −0.657
MTT ([2]; composite Z-score vs DMSO): −2.138
GE-HTS ([3]; composite Z-score vs DMSO): 0.228
mitoOX ([4]; composite Z-score vs DMSO): 0.142
nucOX ([5]; composite Z-score vs DMSO): 0.273
ROS ([6]; composite Z-score vs DMSO): 0.524
cyt c ([7]; composite Z-score vs DMSO): 0.097
Viability ([8]; composite Z-score vs DMSO): −1.471

COc1cccc(C=CC(=O)O)c1C(C)C [2-isopropyl-3-methoxycinnamic acid]
ΔΨm [1, 9]: −0.155
MTT [2, 9]: −2.002
GE-HTS [3, 9]: 0.153
mitoOX [4, 9]: 0.071
nucOX [5, 9]: 0.153
ROS [6, 9]: 0.433
cyt c [7, 9]: 0.274
Viability [8, 9]: 0.040

COC1=C(OC)C(=O)C(C/C=C(\C)CC/C=C(\C)CC/C=C(\C)CC/C=C(\C)CC/C=C(\C)CC/C=C(\C)CC/C=C(\C)CC/C=C(\C)CC/C=C(\C)CCC=C(C)C)=C(C)C1=O [coenzyme Q10]
ΔΨm (composite Z-score) [1]: 0.920
MTT (composite Z-score) [2]: −1.758
GE-HTS (composite Z-score) [3]: 0.366
mitoOX (composite Z-score) [4]: 0.226
nucOX (composite Z-score) [5]: 0.391
ROS (composite Z-score) [6]: 1.179
cyt c (composite Z-score) [7]: 0.636
Viability (composite Z-score) [8]: 0.166

COc1cc2c3cc1Oc1cc(ccc1O)CC1c4c(cc(OC)c(O)c4Oc4ccc(cc4)CC3N(C)CC2)CCN1C (stereo not drawn) [bebeerine]
ΔΨm (composite Z-score) [1]: −0.800
MTT (composite Z-score) [2]: −1.681
GE-HTS (composite Z-score) [3]: −0.005
mitoOX (composite Z-score) [4]: 0.119
nucOX (composite Z-score) [5]: −0.028
ROS (composite Z-score) [6]: 0.759
cyt c (composite Z-score) [7]: 0.389
Viability (composite Z-score) [8]: −0.728

COc1ccc2c(c1)OCC(Cc1ccc(OC)c(OC)c1)C2O (stereo not drawn) [3-deshydroxysappanol trimethyl ether, reference compound]
ΔΨm [1, 9]: 0.033
MTT [2, 9]: −0.416
GEHTS_Zscore [3, 10]: 1.970
GE-HTS [3, 9]: 0.465
mitoOX [4, 9]: 0.224
nucOX [5, 9]: 0.557
ROS Zscore [6, 10]: 1.3852
ROS [6, 9]: 1.385
cyt c [7, 9]: −0.948
Viability [8, 9]: 0.416

COC(=O)CCC(=O)O[C@H]1CC[C@@]2(C)[C@@H](CC[C@@H]3[C@@H]2C(=O)C(O)[C@]2(C)[C@@H]4[C@H](C[C@@H]32)O[C@]2(CC[C@@H](C)CO2)[C@H]4C)C1 (stereo partly drawn)
ΔΨm ([1]; composite Z-score vs DMSO): −0.760
MTT ([2]; composite Z-score vs DMSO): −1.387
GE-HTS ([3]; composite Z-score vs DMSO): −0.063
mitoOX ([4]; composite Z-score vs DMSO): −0.217
nucOX ([5]; composite Z-score vs DMSO): 0.054
ROS ([6]; composite Z-score vs DMSO): 0.918
cyt c ([7]; composite Z-score vs DMSO): −0.005
Viability ([8]; composite Z-score vs DMSO): −0.315
